Results on three compounds are retold here after patent US6207675A, “Pyrrole derivatives, their preparation and pharmaceutical compositions containing them” (Rhone-Poulenc Rorer S.A., priority 1996, dated 2001).

Assay [1] concerns human cytomegalovirus Davis strain. The assay is described as follows: Antiviral activity on human cytomegalovirus, Davis strain (protection from virus-induced cytopathogenic effect). It counts as cell-based. Particulars: for IC50: Human betaherpesvirus 5, Davis strain, read-out: IC50 (concentration necessary to inhibit 50% of the cytopathogenic effect induced by the virus); for IC50 (concentration necessary to inhibit 50% of the cytopathogenic effect induced by the virus): Davis strain. As to the method:
(§1) Infect. Dis., 10, 1026-1033 (1991); or in the technique described by Andrei et al., Eur. J. Clin. Microbiol. Infect. Dis., 11, 143-151 (1992), Reymen et al., Antiviral Res., 28, 343-357 (1995).
(§2) The technique used consists in the measurement of the cytopathogenic effect of the herpesvirus and of its protection by the use of products of general formula (I). The antiviral activity is assessed by measuring the IC50 (concentration necessary to inhibit 50% of the cytopathogenic effect induced by the virus).
(§3) The activity of the products according to the invention on the human cytomegalovirus has been studied on the Davis and AD-169 strains.
A general note: Cytopathic effects are the visible damage that an infection or toxin causes in cultured cells.

Assay [2] concerns human cytomegalovirus AD-169 strain. Briefly: Antiviral activity on human cytomegalovirus, AD-169 strain (protection from virus-induced cytopathogenic effect). In kind it is cell-based. Here is the method:
as §1, §2, §3

≈ marks a conversion by molar mass, not a printed value.

Consider `NC(=O)c1c(Cl)c(-c2cccnc2)n2c1C=C(Cl)CC2` [Example 1, 2,7-dichloro-3-pyridin-3-yl-5,6-dihydroindolizine-1-carboxamide], for which, in assay [1], the IC50 is 0.5 µg/mL (≈ 1.62 µM).

With `COC1=Cc2c(C(N)=O)c(Cl)c(-c3cccnc3)n2CC1` [Example 2, 2-chloro-7-methoxy-3-pyridin-3-yl-5,6-dihydroindolizine-1-carboxamide], the “IC50 (concentration necessary to inhibit 50% of the cytopathogenic effect induced by the virus)” value in assay [2] (AD-169 strain) is 0.86 µg/mL; in assay [1] it was 0.72 µg/mL. The IC50 came out at 0.5 µg/mL (≈ 1.65 µM) in assay [2] (Human betaherpesvirus 5, AD169, AD-169 strain, read-out: IC50 (concentration necessary to inhibit 50% of the cytopathogenic effect induced by the virus)) and 0.43 µg/mL (≈ 1.42 µM) in assay [1].

On to `NC(=O)c1c(Cl)c(-c2cccnc2)n2c1C(O)CCC2` (racemic) [Example 7, (R,S)-2-chloro-8-hydroxy-3-pyridin-3-yl-5,6,7,8-tetrahydroindolizine-1-carboxamide], for which the “IC50 (concentration necessary to inhibit 50% of the cytopathogenic effect induced by the virus)” value in assay [1] (listed as 7 [(R,S) form]) is 0.015 µg/mL. For the same compound, the IC50 in assay [1] was 0.027 µg/mL (≈ 0.0925 µM).
